In patent US5679515A, “Mycobacterial reporter strains and uses thereof” (PathoGenesis Corporation, priority 1994, dated 1997):
≈ marks a conversion by molar mass, not a printed value. Where two headings read alike, the source gives them in different places.

Legend:
[1] = test system: Mycobacterium bovis BCG containing pMV361-lux (BCG:361-lux); experiment: microbe, parasite or virus in culture; assay type: cell-based; settings: for MBC: Mycobacterium tuberculosis variant bovis BCG, BCG
[2] = test system: rBCG:pMH30-lux; design: species or system BCG; BALB/C mice; settings: mouse, in vivo
[3] = test system: Mycobacterium bovis BCG containing pMV361-lux (BCG:361-lux); experiment: microbe, parasite or virus in culture; assay type: cell-based; settings: Mycobacterium tuberculosis variant bovis BCG, 120 h, read-out: MIC BACTEC
[4] = test system: Mycobacterium bovis BCG containing pMV361-lux (BCG:361-lux); experiment: microbe, parasite or virus in culture; assay type: cell-based; settings: for MIC: Mycobacterium tuberculosis variant bovis BCG, BCG
[5] = test system: rBCG:pMH30-lux; design: species or system BCG; BALB/C mice; settings: mouse, in vivo; remark: listed apart in the source

SMILES | MBC ([1]; 24 h) | MBC ([1]; 48 h) | MBC ([1]; 72 h) | MBC ([1]; 96 h) | MBC ([1]; 120 h) | lux activity in spleens vs untreated control mice [2] | MIC [3] | similarity in BACTEC and BCG:pMV361-lux assays (susceptibility) [4] | MIC ([4]; 24 h) | MIC ([4]; 48 h) | MIC ([4]; 72 h) | MIC ([4]; 96 h) | MIC ([4]; 120 h) | MBC value in words [1] | lux activity in spleens [2] | reduced luminescence in spleen vs untreated control [5] | total reduction in luminescence in spleen [5] | rBCG-lux luminescence in spleens [2]
NCC[C@H](O)C(=O)N[C@@H]1C[C@H](N)[C@@H](O[C@H]2O[C@H](CN)[C@@H](O)[C@H](O)[C@H]2O)[C@H](O)[C@H]1O[C@H]1O[C@H](CO)[C@@H](O)[C@H](N)[C@H]1O [Amikacin, amikacin] | 2 µg/mL (≈ 3.42 µM) | 0.5 µg/mL (≈ 0.854 µM) | 0.5 µg/mL (≈ 0.854 µM) | 0.25 µg/mL (≈ 0.427 µM) | 0.25 µg/mL (≈ 0.427 µM) | substantially reduced lux activity | 0.13 µg/mL (≈ 0.222 µM) | comparable | > 2 µg/mL | > 2 µg/mL | 0.5 µg/mL (≈ 0.854 µM) | 0.25 µg/mL (≈ 0.427 µM) | 0.25 µg/mL (≈ 0.427 µM) |  |  |  |  | 
O=C(O)c1cn(C2CC2)c2cc(N3CCNCC3)c(F)cc2c1=O [Ciprofloxacin, ciprofloxacin] | > 2 µg/mL | > 2 µg/mL |  | 0.5 µg/mL (≈ 1.51 µM) | 0.5 µg/mL (≈ 1.51 µM) |  | 0.25 µg/mL (≈ 0.754 µM) | comparable | > 2 µg/mL | > 2 µg/mL | 0.5 µg/mL (≈ 1.51 µM) | 0.5 µg/mL (≈ 1.51 µM) | 0.5 µg/mL (≈ 1.51 µM) |  |  |  |  | 
CC[C@H]1OC(=O)[C@H](C)[C@@H](O[C@H]2C[C@@](C)(OC)[C@@H](O)[C@H](C)O2)[C@H](C)[C@@H](O[C@@H]2O[C@H](C)C[C@H](N(C)C)[C@H]2O)[C@](C)(OC)C[C@@H](C)C(=O)[C@H](C)[C@@H](O)[C@]1(C)O [Clarithromycin, clarithromycin] | > 0.5 µg/mL | > 0.5 µg/mL | > 0.5 µg/mL | > 0.5 µg/mL | > 0.5 µg/mL |  | 0.25 µg/mL (≈ 0.334 µM) | comparable | > 0.5 µg/mL | > 0.5 µg/mL | 0.5 µg/mL (≈ 0.668 µM) | 0.25 µg/mL (≈ 0.334 µM) | 0.25 µg/mL (≈ 0.334 µM) | above the highest concentration tested |  |  |  | 
CC[C@@H](CO)NCCN[C@@H](CC)CO [Ethambutol, ethambutol] | > 8 µg/mL | 8 µg/mL (≈ 39.2 µM) | 4 to 8 µg/mL (≈ 19.6 to 39.2 µM) | 4 µg/mL (≈ 19.6 µM) | 4 µg/mL (≈ 19.6 µM) |  | 2 µg/mL (≈ 9.79 µM) | comparable | > 8 µg/mL | > 8 µg/mL | > 8 µg/mL | 4 µg/mL (≈ 19.6 µM) | 4 µg/mL (≈ 19.6 µM) |  | reduced lux activity | 30% | 75% | 
NNC(=O)c1ccncc1 [Isoniazid, isoniazid] | > 0.5 µg/mL | 0.13 µg/mL (≈ 0.948 µM) | 0.13 µg/mL (≈ 0.948 µM) | 0.13 µg/mL (≈ 0.948 µM) | 0.13 µg/mL (≈ 0.948 µM) |  | 0.06 µg/mL (≈ 0.438 µM) |  | > 0.5 µg/mL | > 0.5 µg/mL | > 0.5 µg/mL | 0.06 µg/mL (≈ 0.438 µM) | 0.06 µg/mL (≈ 0.438 µM) |  | reduced lux activity | 50% | 90% | 
CC1COc2c(N3CCN(C)CC3)c(F)cc3c(=O)c(C(=O)O)cn1c23 (centres unmarked) [OFX, ofloxacin] |  |  |  |  |  | substantially reduced lux activity |  |  |  |  |  |  |  |  |  |  |  | 
CO[C@H]1/C=C/O[C@@]2(C)Oc3c(C)c(O)c4c(O)c(c(/C=N/N5CCN(C)CC5)c(O)c4c3C2=O)NC(=O)/C(C)=C\C=C\[C@H](C)[C@H](O)[C@@H](C)[C@@H](O)[C@@H](C)[C@H](OC(C)=O)[C@@H]1C [Rifampin, rifampin] | > 0.25 µg/mL | > 0.25 µg/mL | > 0.25 µg/mL | 0.13 µg/mL (≈ 0.158 µM) | 0.13 µg/mL (≈ 0.158 µM) |  | 0.03 µg/mL (≈ 0.0365 µM) | comparable | > 0.25 µg/mL | > 0.25 µg/mL | > 0.25 µg/mL | 0.06 µg/mL (≈ 0.0729 µM) | 0.06 µg/mL (≈ 0.0729 µM) |  |  |  |  | reduced rBCG-lux luminescence
[H]/N=C(/N)N[C@H]1[C@H](O)[C@@H](O)[C@H](O[C@@H]2O[C@@H](C)[C@](O)(C=O)[C@H]2O[C@@H]2O[C@@H](CO)[C@H](O)[C@@H](O)[C@@H]2NC)[C@@H](N/C(N)=N\[H])[C@@H]1O [Streptomycin, streptomycin] | > 2 µg/mL | 0.5 µg/mL (≈ 0.86 µM) | 0.5 µg/mL (≈ 0.86 µM) | 0.25 µg/mL (≈ 0.43 µM) | 0.25 µg/mL (≈ 0.43 µM) |  | 0.25 µg/mL (≈ 0.43 µM) | comparable | > 2 µg/mL | 1 µg/mL (≈ 1.72 µM) | 0.5 µg/mL (≈ 0.86 µM) | 0.25 µg/mL (≈ 0.43 µM) | 0.25 µg/mL (≈ 0.43 µM) |  |  |  |  | 
